# Measured values published in paper PMC7755424 (Journal of medicinal chemistry, 2020).
# What was measured:
# [1] = molecular target: T1, human sEH (Homo sapiens, UniProt P34913); assay: sEH inhibition, fluorescent-based assay; assay type: biochemical; conditions: for reduction of the potency (hsEH) relative to 12: compared with 12
# T1 sequence (P34913 1-555): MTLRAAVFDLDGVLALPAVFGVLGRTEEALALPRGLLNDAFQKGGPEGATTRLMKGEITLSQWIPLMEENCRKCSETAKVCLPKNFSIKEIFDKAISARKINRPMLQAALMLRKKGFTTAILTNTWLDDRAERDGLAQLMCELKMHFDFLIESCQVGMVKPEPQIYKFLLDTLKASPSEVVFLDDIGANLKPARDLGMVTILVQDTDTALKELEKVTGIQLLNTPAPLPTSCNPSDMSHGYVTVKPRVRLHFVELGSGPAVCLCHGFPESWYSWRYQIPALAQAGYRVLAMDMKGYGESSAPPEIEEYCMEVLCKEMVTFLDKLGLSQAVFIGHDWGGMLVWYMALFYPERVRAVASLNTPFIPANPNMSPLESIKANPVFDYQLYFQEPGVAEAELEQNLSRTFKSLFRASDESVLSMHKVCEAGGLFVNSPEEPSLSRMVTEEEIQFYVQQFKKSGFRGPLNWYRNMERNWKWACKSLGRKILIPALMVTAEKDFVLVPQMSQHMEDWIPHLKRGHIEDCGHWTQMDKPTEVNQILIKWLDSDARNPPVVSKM
# [2] = Solubility by light scattering; assay type: physicochemical; conditions: 1% DMSO:99% PBS buffer
# [3] = tested on: human recombinant cytochrome P450 enzymes, mainly CYP1A2, CYP2C9, CYP2C19, CYP2D6 and CYP3AE; assay: Cytochrome P450 inhibition assay; assay type: in vitro ADME
# [4] = tested on: Peripheral Blood Mononuclear Cells (PBMC); assay: Cytotoxicity in PBMCs cells + 1.5% PHA; assay type: cell-based; conditions: highest concentration tested (20 μM)
# [5] = molecular target: hERG channel (Homo sapiens, UniProt Q12809); assay: hERG inhibition; conditions: at 10 μM
# [6] = molecular target: T2, hLOX-5 (Homo sapiens, UniProt P09917); assay: Inhibition of human lipoxygenase-5; assay type: biochemical; conditions: selectivity
# T2 sequence (P09917 1-674): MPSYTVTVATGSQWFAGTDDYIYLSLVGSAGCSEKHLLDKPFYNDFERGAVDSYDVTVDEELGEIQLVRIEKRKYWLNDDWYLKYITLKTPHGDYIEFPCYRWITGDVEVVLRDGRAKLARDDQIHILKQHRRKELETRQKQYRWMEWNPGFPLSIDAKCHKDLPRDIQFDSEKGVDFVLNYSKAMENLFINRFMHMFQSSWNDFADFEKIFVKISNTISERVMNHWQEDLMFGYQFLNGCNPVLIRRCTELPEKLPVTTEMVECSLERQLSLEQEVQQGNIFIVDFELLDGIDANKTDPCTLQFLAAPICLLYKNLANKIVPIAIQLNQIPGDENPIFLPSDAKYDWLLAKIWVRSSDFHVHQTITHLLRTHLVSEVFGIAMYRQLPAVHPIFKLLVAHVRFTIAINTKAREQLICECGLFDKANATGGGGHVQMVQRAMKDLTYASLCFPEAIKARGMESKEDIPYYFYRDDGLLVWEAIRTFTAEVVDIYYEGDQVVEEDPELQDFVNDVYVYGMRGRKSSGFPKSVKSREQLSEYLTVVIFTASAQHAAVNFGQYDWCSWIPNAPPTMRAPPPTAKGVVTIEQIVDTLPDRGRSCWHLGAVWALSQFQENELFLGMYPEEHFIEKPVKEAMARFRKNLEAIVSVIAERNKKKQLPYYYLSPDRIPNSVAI
# [7] = tested on: cerulein-induced AP; assay: In vivo efficacy, cerulein-induced AP, post-induction; design: species or system C57BL/6J mice; conditions: for inflammatory (TNF-α, IL-1β and MCP-1) and ER stress (ATF3) markers mRNA: post-induction, vs cerulein only
# [8] = Pharmacokinetic study in mouse; conditions: IP, 1 mg/kg
# [9] = tested on: cerulein-induced AP; assay: In vivo efficacy, cerulein-induced AP, pre-induction; design: species or system C57BL/6J mice
# [10] = tested on: AR42J pancreatic acinar rat cell line; assay: In vitro proof of concept: cerulein-induced AP in AR42J cells; assay type: cell-based; conditions: 60 μM, cerulein 10 nM
# [11] = Maximum tolerated dose study; assay type: in vivo; conditions: mice, ip daily, 5, 10, 20 and 80 mg/kg, five consecutive days
# Sequence of hERG channel (Q12809 whole entry): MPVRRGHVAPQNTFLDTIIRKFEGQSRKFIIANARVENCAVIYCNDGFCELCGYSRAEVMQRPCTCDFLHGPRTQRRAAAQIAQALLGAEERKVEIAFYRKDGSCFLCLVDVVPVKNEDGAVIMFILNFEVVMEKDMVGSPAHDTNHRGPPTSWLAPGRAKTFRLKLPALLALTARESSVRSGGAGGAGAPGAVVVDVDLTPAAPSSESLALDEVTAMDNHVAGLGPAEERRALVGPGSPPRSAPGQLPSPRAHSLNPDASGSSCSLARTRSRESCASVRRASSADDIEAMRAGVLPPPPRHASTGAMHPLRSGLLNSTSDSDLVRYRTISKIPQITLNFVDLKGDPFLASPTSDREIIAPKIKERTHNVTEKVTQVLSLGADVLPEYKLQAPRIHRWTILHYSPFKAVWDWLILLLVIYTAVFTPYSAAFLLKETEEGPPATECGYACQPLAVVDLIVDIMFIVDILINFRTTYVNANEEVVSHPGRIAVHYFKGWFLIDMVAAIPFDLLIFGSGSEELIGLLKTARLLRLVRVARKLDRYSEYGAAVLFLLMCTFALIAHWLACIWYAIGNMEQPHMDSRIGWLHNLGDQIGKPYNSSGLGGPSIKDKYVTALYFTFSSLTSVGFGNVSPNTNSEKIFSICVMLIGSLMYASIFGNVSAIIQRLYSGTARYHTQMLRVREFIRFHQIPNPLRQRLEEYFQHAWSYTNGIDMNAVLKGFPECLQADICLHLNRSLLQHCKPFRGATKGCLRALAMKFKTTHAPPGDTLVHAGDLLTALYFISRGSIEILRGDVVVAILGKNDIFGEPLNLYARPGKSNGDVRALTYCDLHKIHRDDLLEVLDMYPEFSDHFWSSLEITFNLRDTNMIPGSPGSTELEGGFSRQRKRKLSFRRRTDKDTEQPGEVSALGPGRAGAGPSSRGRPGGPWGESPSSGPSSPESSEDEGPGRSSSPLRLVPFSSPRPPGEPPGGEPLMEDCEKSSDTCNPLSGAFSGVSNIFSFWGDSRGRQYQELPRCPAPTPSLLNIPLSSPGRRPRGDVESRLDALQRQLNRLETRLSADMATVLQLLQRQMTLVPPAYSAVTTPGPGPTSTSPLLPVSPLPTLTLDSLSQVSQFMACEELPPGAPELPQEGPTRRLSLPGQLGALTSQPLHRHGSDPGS
compound,measurement,setting,value
"O=C(Nc1ccc(F)c(F)c1F)NC12OC3C4C5CC(C6C5C3C61)C42 (stereo not shown) [Compound 9, 1-(4-oxahexacyclo[5.4.1.0^2,6.0^3,10.0^5,9.0^8,11]dodecan-3-yl)-3-(2,3,4-trifluorophenyl)urea]",IC50,[1],0.0313 µM
"O=C(NC1CCN(C(=O)C2CC2)CC1)NC12CC3CC(CC(C3)O1)C2 [Compound 23, 1-(2-Oxaadamant-1-yl)-3-(1-(cyclopropanecarbonyl)-piperidin-4-yl)urea]",reduction of the potency (hsEH) relative to 12,[1],10–15 fold
"CC(=O)N1CCC(NC(=O)NC23CC4CC(CC(C4)C2)C3)CC1 [Compound 1, 1-(1-Acetyl-piperidin-4-yl)-3-adamantan-1-yl-urea]",solubility at 2 h,[2],24 µM
"CC(=O)N1CCC(NC(=O)NC23CC4CC(CC(C4)O2)C3)CC1 [Compound 12, 1-(1-acetylpiperidin-4-yl)-3-(oxaadamant-1-yl)urea]",potency inhibiting the different cytochromes tested,[3],higher than 10 μM
same,cytotoxicity in the PBMC,[4],not cytotoxic
same,inhibition on hERG,[5],minimal inhibition
"O=C(NC1CCN(Cc2ccccc2)CC1)NC12CC3CC(CC(C3)O1)C2 [Compound 15, 1-(2-Oxaadamant-1-yl)-3-(1-benzylpiperidin-4-yl)urea]",reduction of the potency (hsEH) relative to 12,[1],~40 fold
"CS(=O)(=O)N1CCC(NC(=O)NC23CC4CC(CC(C4)O2)C3)CC1 [Compound 26, 1-(2-Oxaadamantan-1-yl)-3-(1-(methylsulfonyl)piperidin-4-yl)urea]",reduction of the potency (hsEH) relative to 12,[1],eight
"O=C(NC1CCN(C(=O)c2cccnc2)CC1)NC12CC3CC(CC(C3)O1)C2 [Compound 20, 1-(2-Oxaadamant-1-yl)-3-(1-nicotinoylpiperidin-4-yl)urea]",drop in inhibitory activity (hsEH) relative to 21,[1]; 3-pyridyl vs 2-fluorophenyl (21),3 folds
"O=C(NC1CCN(C(=O)c2ccccc2F)CC1)NC12CC3CC(CC(C3)O1)C2 [Compound 21, 1-(2-Oxaadamant-1-yl)-3-(1-(2-fluorobenzoyl)piperidin-4-yl)urea]",inhibition of hLOX-5,[6],displayed significant inhibition
same,cytotoxicity in the PBMC,[4],not cytotoxic
"O=C(Nc1ccc(F)c(F)c1F)NC12CC3CC(C1)OC(C3)C2 [Compound 4, 1-(2-oxaadamant-5-yl)-3-(2,3,4-trifluorophenyl)urea]",IC50,[1],0.0474 µM
"CCC(=O)N1CCC(NC(=O)NC23CC4CC(CC(C4)O2)C3)CC1 [Compound 24, 1-(2-Oxaadamantan-1-yl)-3-(1-propionylpiperidin-4-yl)urea]",reduction of the potency (hsEH) relative to 12,[1],10–15 fold
same,inhibition of hLOX-5,[6],displayed significant inhibition
"CC(C)S(=O)(=O)N1CCC(NC(=O)NC23CC4CC(CC(C4)O2)C3)CC1 [Compound 22, 1-(2-Oxaadamant-1-yl)-3-(1-(isopropylsulfonyl)piperidin-4-yl)urea]","inflammatory (TNF-α, IL-1β and MCP-1) and ER stress (ATF3) markers mRNA",[7]; 3 mg/kg,did not cause a significant reduction
same,"inflammatory (TNF-α, IL-1β and MCP-1) and ER stress (ATF3) markers mRNA",[7]; 30 mg/kg,significant reduction
same,cerulein-induced edema and inflammation (H&E histology),[7]; treated after the induction of AP,significant decrease
same,Cl,[8],473.5 mL/min/kg
same,"increase of inflammatory (TNF-α, IL1-β and MCP-1) and ER stress (ATF3) markers produced by cerulein","[9]; pre-induction, 30 mg/kg",significantly reduced
same,cerulein-induced edema and inflammation (H&E histology),[9]; treated before the induction of AP,significant decrease
same,inhibition of hLOX-5,[6],displayed significant inhibition
same,"increase in the expression of IL-6, CHOP and TRB3 caused by cerulein",[10],completely abolished
same,increment in TNF-α caused by cerulein exposure,[10],strongly attenuated
same,potency inhibiting the different cytochromes tested,[3],higher than 10 μM
same,"toxic effects (body weight, behavior problems, petechiae)",[11],No toxic effects were observed
same,cytotoxicity in the PBMC,[4],not cytotoxic
same,inhibition on hERG,[5],minimal inhibition
"O=C(NC1CCN(C(=O)C2CCOCC2)CC1)NC12CC3CC(CC(C3)O1)C2 [Compound 19, 1-(2-Oxaadamant-1-yl)-3-(1-(tetrahydro-2H-pyran-4-carbonyl)piperidin-4-yl)urea]",reduction of the potency (hsEH) relative to 12,[1],10–15 fold
